Measurements from patent US6737383B1, “Herbicidal oxadiazolidines” (priority 1999, dated 2004).

Tests used:
[1] = system: bedstraw; test: Test B pre/postemergence bedstraw; type: in vivo, Galium aparine
Method in brief: (§1)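 Response is a visual 0-to-10 score relative to untreated plants, where 0 means no effect and 10 means complete control, taken twelve to sixteen days after application. Treatments went onto soil at planting and onto foliage of 1- to 4-leaf plants, using a surfactant-containing non-phytotoxic solvent.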

[2] = system: blackgrass; test: Test B pre/postemergence blackgrass; type: in vivo, Alopecurus myosuroides
Method in brief: as §1

[3] = system: surinam grass; test: Test B pre/postemergence surinam grass; type: in vivo, Brachiaria decumbens
Method in brief: as §1

[4] = system: cocklebur; test: Test B pre/postemergence cocklebur; type: in vivo, Xanthium strumarium
Method in brief: as §1

[5] = system: crabgrass; test: Test B pre/postemergence crabgrass; type: in vivo, Digitaria sanguinalis
Method in brief: as §1

[6] = system: giant foxtail; test: Test B pre/postemergence giant foxtail; type: in vivo, Setaria faberii
Method in brief: as §1

[7] = system: morningglory; test: Test B pre/postemergence morningglory; type: in vivo, Ipomoea hederacea
Method in brief: as §1

[8] = system: pigweed; test: Test B pre/postemergence pigweed; type: in vivo, Amaranthus retroflexus
Method in brief: as §1

[9] = system: soybean; test: Test B pre/postemergence soybean; type: in vivo, Glycine max
Method in brief: as §1

[10] = system: velvetleaf; test: Test B pre/postemergence velvetleaf; type: in vivo, Abutilon theophrasti; conditions: for Plant response rating, Velvetleaf: Rate 250 g/ha
Method in brief: as §1

[11] = system: wheat; test: Test B pre/postemergence wheat; type: in vivo, Triticum aestivum; conditions: for Plant response rating, Wheat: Rate 250 g/ha
Method in brief: as §1

[12] = system: wild oat; test: Test B pre/postemergence wild oat; type: in vivo, Avena fatua; conditions: for Plant response rating, Wild oats: Rate 250 g/ha
Method in brief: as §1

[13] = system: purple nutsedge; test: Test B pre/postemergence purple nutsedge; type: in vivo, Cyperus rotundus
Method in brief: as §1

[14] = system: rice; test: Test B flood test rice; type: in vivo, Oryza sativa
Method in brief: (§2)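 Each value is a visual injury score relative to controls, with 10 meaning complete control and 0 no effect. Evaluation took place twelve to sixteen days after the 2-leaf-stage plants were treated and kept in the greenhouse.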

[15] = system: smallflower flatsedge; test: Test B flood test smallflower flatsedge; type: in vivo, Cyperus difformis
Method in brief: as §2

[16] = system: bamyardgrass; test: Test B flood test barnyardgrass; type: in vivo, Echinochloa crus-galli
Method in brief: as §2

[17] = Postemergence, Rate 62 g/ha, scale 0 to 10, 0 is no effect, 10 is complete control
[18] = Postemergence, Rate 250 g/ha, scale 0 to 10, 0 no effect, 10 complete control
[19] = Preemergence, Rate 62 g/ha, scale 0 to 10 (0 no effect, 10 complete control)
[20] = Preemergence, Rate 125 g/ha, scale 0 to 10 (0 no effect, 10 complete control)
[21] = Preemergence, Rate 250 g/ha, scale of 0 to 10 where 0 is no effect and 10 is complete control
[22] = Preemergence, Rate 500 g/ha, scale 0 to 10 (0 no effect, 10 complete control)
[23] = Rate 125 g/ha, Postemergence, scale 0 to 10, 0 no effect, 10 complete control
[24] = Postemergence, Rate 125 g/ha, scale of 0 to 10 where 0 is no effect and 10 is complete control
[25] = Rate 62 g/ha, Postemergence, scale of 0 to 10 where 0 is no effect and 10 is complete control
[26] = Rate 500 g/ha, Postemergence, scale 0 to 10, 0 no effect, 10 complete control
[27] = Rate 250 g/ha, Postemergence, scale 0 to 10, 0 is no effect, 10 is complete control
[28] = Preemergence, Rate 125 g/ha, 0 is no effect, 10 is complete control
[29] = Preemergence, scale of 0 to 10 where 0 is no effect and 10 is complete control
[30] = Postemergence, scale 0 to 10, 0 is no effect, 10 is complete control
[31] = Postemergence (flood test species), Rate 125 g/ha, scale of 0 to 10 where 0 is no effect and 10 is complete control
[32] = Rate 62 g/ha, Postemergence section, flood test species, scale of 0 to 10 where 0 is no effect and 10 is complete control
[33] = Rate 250 g/ha, Postemergence (flood test), scale 0 to 10, 0 is no effect, 10 is complete control
[34] = Rate 250 g/ha, headed Pre-emergence (flood test species), scale 0 to 10 (0 no effect, 10 complete control)
[35] = Rate 500 g/ha, headed Pre-emergence (flood test species), scale 0 to 10 (0 no effect, 10 complete control)
[36] = Rate 500 g/ha, listed under Postemergence (flood test species), scale 0 to 10, 0 no effect, 10 complete control
[37] = Rate 1000 g/ha, Pre-emergence (as headed), scale 0 to 10
[38] = Rate 2000 g/ha, Pre-emergence (as headed), scale 0 to 10

CC(C)N(C(=O)n1oc(=O)n(C(C)C)c1=O)c1ccc(F)cc1F [Compound 109]
Bedstraw plant response rating [1, 17]: 6
Bedstraw plant response rating [1, 18]: 9
Bedstraw plant response rating [1, 19]: 8
Plant response rating, Bedstraw [1, 20]: 10
Plant response rating, Bedstraw [1, 21]: 10
Bedstraw plant response rating [1, 22]: 10
Bedstraw plant response rating [1, 23]: 8
Blackgrass plant response rating [2, 24]: 8
Blackgrass plant response rating [2, 18]: 8
Blackgrass plant response rating [2, 19]: 8
Plant response rating, Blackgrass [2, 20]: 8
Plant response rating, Blackgrass [2, 21]: 10
Blackgrass plant response rating [2, 22]: 10
Blackgrass plant response rating [2, 25]: 7
Blackgrass plant response rating [2, 26]: 8
B. signalgrass plant response rating [3, 17]: 7
B. signalgrass plant response rating [3, 18]: 8
B. signalgrass plant response rating [3, 19]: 9
Plant response rating, B. signalgrass [3, 20]: 9
Plant response rating, B. signalgrass [3, 21]: 10
B. signalgrass plant response rating [3, 22]: 10
B. signalgrass plant response rating [3, 23]: 7
B. signalgrass plant response rating ([3]; Rate 500 g/ha, Postemergence, scale of 0 to 10 where 0 is no effect and 10 is complete control): 8
Cocklebur plant response rating [4, 24]: 3
Cocklebur plant response rating [4, 18]: 4
Cocklebur plant response rating [4, 19]: 0
Plant response rating, Cocklebur [4, 20]: 0
Plant response rating, Cocklebur [4, 21]: 0
Cocklebur plant response rating [4, 22]: 5
Cocklebur plant response rating [4, 25]: 2
Cocklebur plant response rating [4, 26]: 5
Crabgrass plant response rating [5, 24]: 9
Crabgrass plant response rating [5, 18]: 9
Crabgrass plant response rating [5, 19]: 10
Plant response rating, Crabgrass [5, 20]: 10
Plant response rating, Crabgrass [5, 21]: 10
Crabgrass plant response rating [5, 22]: 10
Crabgrass plant response rating [5, 25]: 8
Crabgrass plant response rating [5, 26]: 9
Giant foxtail plant response rating [6, 24]: 9
Giant foxtail plant response rating [6, 18]: 9
Giant foxtail plant response rating [6, 19]: 10
Plant response rating, Giant foxtail [6, 20]: 10
Plant response rating, Giant foxtail [6, 21]: 10
Giant foxtail plant response rating [6, 22]: 10
Giant foxtail plant response rating [6, 25]: 8
Giant foxtail plant response rating [6, 26]: 9
Morningglory plant response rating [7, 24]: 3
Morningglory plant response rating [7, 18]: 5
Morningglory plant response rating [7, 19]: 0
Plant response rating, Morningglory [7, 20]: 5
Plant response rating, Morningglory [7, 21]: 6
Morningglory plant response rating [7, 22]: 10
Morningglory plant response rating [7, 25]: 3
Morningglory plant response rating [7, 26]: 5
Redroot pigweed plant response rating [8, 24]: 5
Redroot pigweed plant response rating [8, 19]: 10
Plant response rating, Redroot pigweed [8, 20]: 10
Plant response rating, Redroot pigweed [8, 21]: 10
Redroot pigweed plant response rating [8, 22]: 10
Redroot pigweed plant response rating [8, 25]: 3
Plant response rating, Redroot pigweed [8, 27]: 8
Redroot pigweed plant response rating [8, 26]: 8
Soybean plant response rating [9, 24]: 6
Soybean plant response rating [9, 19]: 0
Plant response rating, Soybean [9, 20]: 7
Plant response rating, Soybean [9, 21]: 8
Soybean plant response rating [9, 22]: 9
Soybean plant response rating [9, 25]: 4
Plant response rating, Soybean [9, 27]: 7
Soybean plant response rating [9, 26]: 7
Velvetleaf plant response rating [10, 24]: 2
Velvetleaf plant response rating [10, 19]: 5
Velvetleaf plant response rating (0 to 10 scale) [10, 28]: 7
Plant response rating, Velvetleaf [10, 29]: 10
Velvetleaf plant response rating [10, 22]: 10
Velvetleaf plant response rating [10, 25]: 0
Plant response rating, Velvetleaf [10, 30]: 6
Velvetleaf plant response rating [10, 26]: 6
Wheat plant response rating [11, 24]: 0
Wheat plant response rating [11, 19]: 0
Wheat plant response rating (0 to 10 scale) [11, 28]: 5
Plant response rating, Wheat [11, 29]: 9
Wheat plant response rating [11, 22]: 10
Wheat plant response rating [11, 25]: 0
Plant response rating, Wheat [11, 30]: 5
Wheat plant response rating [11, 26]: 6
Wild oats plant response rating [12, 24]: 0
Wild oats plant response rating [12, 19]: 8
Wild oats plant response rating (0 to 10 scale) [12, 28]: 10
Plant response rating, Wild oats [12, 29]: 10
Wild oats plant response rating [12, 22]: 10
Wild oats plant response rating [12, 25]: 0
Plant response rating, Wild oats [12, 30]: 4
Wild oats plant response rating [12, 26]: 7
Nutsedge plant response rating [13, 24]: 0
Nutsedge plant response rating [13, 18]: 0
Nutsedge plant response rating [13, 19]: 0
Plant response rating, Nutsedge [13, 20]: 0
Plant response rating, Nutsedge [13, 21]: 0
Nutsedge plant response rating [13, 22]: 0
Nutsedge plant response rating [13, 25]: 0
Nutsedge plant response rating [13, 26]: 4
Rice plant response rating [14, 31]: 0
Rice plant response rating [14, 32]: 0
Plant response rating, Rice [14, 33]: 0
Rice plant response rating [14, 34]: 0
Plant response rating, Rice [14, 35]: 0
Rice plant response rating [14, 36]: 0
Rice plant response rating [14, 37]: 0
Rice plant response rating [14, 38]: 7
S. Flatsedge plant response rating [15, 31]: 0
S. Flatsedge plant response rating ([15]; Pre-emergence, Rate 1000 g/ha, scale 0 to 10 (0 no effect, 10 complete control)): 8
S. Flatsedge plant response rating [15, 32]: 0
Plant response rating, S. Flatsedge [15, 33]: 0
S. Flatsedge plant response rating [15, 34]: 0
Plant response rating, S. Flatsedge [15, 35]: 0
S. Flatsedge plant response rating [15, 36]: 0
S. Flatsedge plant response rating [15, 38]: 8
Barnyardgrass plant response rating [16, 17]: 0
Barnyardgrass plant response rating ([16]; Rate 125 g/ha, Postemergence section (flood test species), scale 0 to 10, 0 no effect, 10 complete control): 0
Barnyardgrass plant response rating [16, 34]: 0
Plant response rating, Barnyardgrass [16, 35]: 0
Barnyardgrass plant response rating [16, 36]: 0
Barnyardgrass plant response rating [16, 37]: 8
Barnyardgrass plant response rating ([16]; Rate 2000 g/ha, Pre-emergence (as headed), scale 0 to 10, 0 no effect, 10 complete control): 9
Barnyardgrass plant response rating ([16]; flood test, listed under Postemergence, Rate 250 g/ha, scale 0 to 10, 0 no effect, 10 complete control): 0
